What was measured:
Test in all cases: KINOMEscan kinase binding assay
[1] = biological target: T1, 384 kinases from the human genome (Homo sapiens, UniProt O94921); conditions: kinase PFTK1 (Entrez CDK14)
T1 construct: purchased Eurofin/DiscoverX
Procedure, shortened: (§1)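 Competition binding (KINOMEscan) across 384 human kinases with compound at 10 µM. Ligand binding was expressed relative to DMSO (100%) as the average of duplicates from one experiment. S(10) selectivity score was derived.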

[2] = biological target: T2, 384 kinases from the human genome (Homo sapiens, UniProt O96013); conditions: kinase PAK4 (Entrez PAK4)
T2 construct: purchased Eurofin/DiscoverX
Procedure, shortened: as §1

[3] = biological target: T3, 384 kinases from the human genome (Homo sapiens, UniProt P16234); conditions: kinase PDGFRA (Entrez PDGFRA)
T3 construct: purchased Eurofin/DiscoverX
Procedure, shortened: as §1

[4] = biological target: T4, 384 kinases from the human genome (Homo sapiens, UniProt P57078); conditions: kinase RIPK4 (Entrez RIPK4)
T4 construct: purchased Eurofin/DiscoverX
Procedure, shortened: as §1

[5] = biological target: T5, 384 kinases from the human genome (Homo sapiens, UniProt Q00537); conditions: kinase PCTK2 (Entrez CDK17)
T5 construct: purchased Eurofin/DiscoverX
Procedure, shortened: as §1

[6] = biological target: T6, 384 kinases from the human genome (Homo sapiens, UniProt P00519); conditions: kinase ABL1-phosphorylated (Entrez ABL1)
T6 construct: purchased Eurofin/DiscoverX
Procedure, shortened: as §1

[7] = biological target: T7, 384 kinases from the human genome (Homo sapiens, UniProt Q16513); conditions: kinase PKN2 (Entrez PKN2)
T7 construct: purchased Eurofin/DiscoverX
Procedure, shortened: as §1

[8] = biological target: T8, 384 kinases from the human genome (Homo sapiens, UniProt Q9Y6M4); conditions: kinase CSNK1G3 (Entrez CSNK1G3)
T8 construct: purchased Eurofin/DiscoverX
Procedure, shortened: as §1

[9] = biological target: T9, 384 kinases from the human genome (Homo sapiens, UniProt Q6ZN16); conditions: kinase MAP3K15 (Entrez MAP3K15)
T9 construct: purchased Eurofin/DiscoverX
Procedure, shortened: as §1

[10] = biological target: T10, 384 kinases from the human genome (Homo sapiens, UniProt Q16832); conditions: kinase DDR2 (Entrez DDR2)
T10 construct: purchased Eurofin/DiscoverX
Procedure, shortened: as §1

[11] = biological target: T11, 384 kinases from the human genome (Homo sapiens, UniProt P08631); conditions: kinase HCK (Entrez HCK)
T11 construct: purchased Eurofin/DiscoverX
Procedure, shortened: as §1

[12] = biological target: T12, 384 kinases from the human genome (Homo sapiens, UniProt Q86UE8); conditions: kinase TLK2 (Entrez TLK2)
T12 construct: purchased Eurofin/DiscoverX
Procedure, shortened: as §1

[13] = biological target: T13, 384 kinases from the human genome (Homo sapiens, UniProt P54753); conditions: kinase EPHB3 (Entrez EPHB3)
T13 construct: purchased Eurofin/DiscoverX
Procedure, shortened: as §1

[14] = biological target: T14, 384 kinases from the human genome (Homo sapiens, UniProt P0C264); conditions: kinase SgK110 (Entrez SgK110)
T14 construct: purchased Eurofin/DiscoverX
Procedure, shortened: as §1

[15] = biological target: T15, 384 kinases from the human genome (Homo sapiens, UniProt Q9UBF8); conditions: kinase PIK4CB (Entrez PI4KB)
T15 construct: purchased Eurofin/DiscoverX
Procedure, shortened: as §1

[16] = biological target: T16, 384 kinases from the human genome (Homo sapiens, UniProt P06241); conditions: kinase FYN (Entrez FYN)
T16 construct: purchased Eurofin/DiscoverX
Procedure, shortened: as §1

[17] = biological target: T17, 384 kinases from the human genome (Homo sapiens, UniProt O15197); conditions: kinase EPHB6 (Entrez EPHB6)
T17 construct: purchased Eurofin/DiscoverX
Procedure, shortened: as §1

[18] = biological target: T18, 384 kinases from the human genome (Homo sapiens, UniProt O14730); conditions: kinase RIOK3 (Entrez RIOK3)
T18 construct: purchased Eurofin/DiscoverX
Procedure, shortened: as §1

[19] = biological target: T19, 384 kinases from the human genome (Homo sapiens, UniProt P29317); conditions: kinase EPHA2 (Entrez EPHA2)
T19 construct: purchased Eurofin/DiscoverX
Procedure, shortened: as §1

[20] = biological target: T20, 384 kinases from the human genome (Homo sapiens, UniProt Q15831); conditions: kinase LKB1 (Entrez STK11)
T20 construct: purchased Eurofin/DiscoverX
Procedure, shortened: as §1

[21] = biological target: T21, 384 kinases from the human genome (Homo sapiens, UniProt Q9UQB9); conditions: kinase AURKC (Entrez AURKC)
T21 construct: purchased Eurofin/DiscoverX
Procedure, shortened: as §1

[22] = biological target: T22, 384 kinases from the human genome (Homo sapiens, UniProt Q6P3R8); conditions: kinase NEK5 (Entrez NEK5)
T22 construct: purchased Eurofin/DiscoverX
Procedure, shortened: as §1

[23] = biological target: T23, 384 kinases from the human genome (Homo sapiens, UniProt P36896); conditions: kinase ACVR1B (Entrez ACVR1B)
T23 construct: purchased Eurofin/DiscoverX
Procedure, shortened: as §1

[24] = biological target: T24, 384 kinases from the human genome (Homo sapiens, UniProt Q15569); conditions: kinase TESK1 (Entrez TESK1)
T24 construct: purchased Eurofin/DiscoverX
Procedure, shortened: as §1

[25] = biological target: T25, 384 kinases from the human genome (Homo sapiens, UniProt Q9BWU1); conditions: kinase CDK11 (Entrez CDK19)
T25 construct: purchased Eurofin/DiscoverX
Procedure, shortened: as §1

[26] = biological target: T26, 384 kinases from the human genome (Homo sapiens, UniProt Q9BXA7); conditions: kinase TSSK1B (Entrez TSSK1B)
T26 construct: purchased Eurofin/DiscoverX
Procedure, shortened: as §1

T20 sequence (Q15831 whole entry): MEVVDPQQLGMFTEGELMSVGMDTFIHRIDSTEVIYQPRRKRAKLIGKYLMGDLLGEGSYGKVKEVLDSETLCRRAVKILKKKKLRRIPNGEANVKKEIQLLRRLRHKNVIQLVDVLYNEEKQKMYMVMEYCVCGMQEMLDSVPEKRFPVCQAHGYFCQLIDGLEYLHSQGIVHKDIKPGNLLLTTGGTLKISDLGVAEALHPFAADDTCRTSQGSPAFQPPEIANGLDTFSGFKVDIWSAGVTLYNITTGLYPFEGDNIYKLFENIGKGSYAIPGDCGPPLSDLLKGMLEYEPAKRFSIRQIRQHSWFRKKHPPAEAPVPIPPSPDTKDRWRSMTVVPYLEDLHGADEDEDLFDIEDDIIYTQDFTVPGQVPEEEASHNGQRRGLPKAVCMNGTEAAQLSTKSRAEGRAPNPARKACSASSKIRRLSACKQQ
T13 sequence (P54753 34-998): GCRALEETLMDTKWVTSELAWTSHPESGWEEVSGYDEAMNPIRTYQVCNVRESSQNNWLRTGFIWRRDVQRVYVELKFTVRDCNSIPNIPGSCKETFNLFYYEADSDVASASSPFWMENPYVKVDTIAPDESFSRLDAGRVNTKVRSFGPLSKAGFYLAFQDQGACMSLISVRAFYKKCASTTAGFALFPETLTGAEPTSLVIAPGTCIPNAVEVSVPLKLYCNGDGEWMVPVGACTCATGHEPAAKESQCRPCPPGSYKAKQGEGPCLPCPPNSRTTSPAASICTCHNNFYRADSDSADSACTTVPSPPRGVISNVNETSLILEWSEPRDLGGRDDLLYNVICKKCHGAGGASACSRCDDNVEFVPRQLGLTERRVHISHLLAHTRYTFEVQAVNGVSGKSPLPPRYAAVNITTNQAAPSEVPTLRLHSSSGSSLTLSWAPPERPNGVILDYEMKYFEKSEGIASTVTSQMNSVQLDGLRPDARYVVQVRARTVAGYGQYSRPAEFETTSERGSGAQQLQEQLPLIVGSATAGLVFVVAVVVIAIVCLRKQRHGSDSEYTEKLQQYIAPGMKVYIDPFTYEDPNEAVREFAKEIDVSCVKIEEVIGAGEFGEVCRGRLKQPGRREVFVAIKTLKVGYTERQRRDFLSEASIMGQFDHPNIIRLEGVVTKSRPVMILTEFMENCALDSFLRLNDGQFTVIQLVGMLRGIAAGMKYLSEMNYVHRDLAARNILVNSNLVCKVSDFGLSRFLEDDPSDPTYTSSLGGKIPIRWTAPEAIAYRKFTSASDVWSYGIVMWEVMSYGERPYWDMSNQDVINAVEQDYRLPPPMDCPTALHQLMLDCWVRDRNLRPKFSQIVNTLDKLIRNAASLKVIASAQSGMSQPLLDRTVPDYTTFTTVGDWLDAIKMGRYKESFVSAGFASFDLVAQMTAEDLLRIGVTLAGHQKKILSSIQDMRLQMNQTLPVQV
T26 sequence (Q9BXA7 whole entry): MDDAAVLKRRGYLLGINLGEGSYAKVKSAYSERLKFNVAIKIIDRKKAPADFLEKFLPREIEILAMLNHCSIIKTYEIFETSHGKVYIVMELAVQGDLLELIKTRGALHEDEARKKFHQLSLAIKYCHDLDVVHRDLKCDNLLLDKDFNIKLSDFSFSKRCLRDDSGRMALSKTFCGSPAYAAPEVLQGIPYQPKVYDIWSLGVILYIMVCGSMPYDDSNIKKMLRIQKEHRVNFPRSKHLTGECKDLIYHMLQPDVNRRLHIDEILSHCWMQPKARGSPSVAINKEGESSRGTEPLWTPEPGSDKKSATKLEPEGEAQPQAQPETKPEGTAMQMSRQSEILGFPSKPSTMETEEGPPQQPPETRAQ
T23 sequence (P36896 24-505): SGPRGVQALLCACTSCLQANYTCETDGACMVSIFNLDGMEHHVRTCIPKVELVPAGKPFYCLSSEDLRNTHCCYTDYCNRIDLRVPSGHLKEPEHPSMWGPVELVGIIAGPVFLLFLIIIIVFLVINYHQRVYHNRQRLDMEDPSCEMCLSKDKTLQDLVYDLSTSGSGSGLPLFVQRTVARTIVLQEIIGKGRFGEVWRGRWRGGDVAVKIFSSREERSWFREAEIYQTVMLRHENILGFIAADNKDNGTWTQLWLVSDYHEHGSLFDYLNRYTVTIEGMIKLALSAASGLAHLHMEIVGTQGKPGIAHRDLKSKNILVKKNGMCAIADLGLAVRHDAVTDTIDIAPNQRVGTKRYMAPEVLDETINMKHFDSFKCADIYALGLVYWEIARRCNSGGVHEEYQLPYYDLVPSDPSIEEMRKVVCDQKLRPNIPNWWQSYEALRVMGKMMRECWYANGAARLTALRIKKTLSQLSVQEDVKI
T5 sequence (Q00537 whole entry): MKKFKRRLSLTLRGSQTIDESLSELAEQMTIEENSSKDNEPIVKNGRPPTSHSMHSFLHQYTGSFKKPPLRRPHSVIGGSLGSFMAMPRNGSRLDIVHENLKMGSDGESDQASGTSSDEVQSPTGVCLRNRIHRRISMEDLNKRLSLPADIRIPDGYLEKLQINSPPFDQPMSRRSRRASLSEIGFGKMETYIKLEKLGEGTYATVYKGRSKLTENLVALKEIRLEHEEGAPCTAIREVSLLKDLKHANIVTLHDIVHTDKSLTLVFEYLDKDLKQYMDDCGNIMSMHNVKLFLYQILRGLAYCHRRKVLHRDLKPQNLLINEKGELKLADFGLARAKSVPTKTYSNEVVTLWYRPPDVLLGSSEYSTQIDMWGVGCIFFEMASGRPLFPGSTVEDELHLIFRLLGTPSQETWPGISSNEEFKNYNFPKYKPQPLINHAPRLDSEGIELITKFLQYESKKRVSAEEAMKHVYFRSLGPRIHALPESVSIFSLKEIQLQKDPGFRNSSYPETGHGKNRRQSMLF
T14 sequence (P0C264 whole entry): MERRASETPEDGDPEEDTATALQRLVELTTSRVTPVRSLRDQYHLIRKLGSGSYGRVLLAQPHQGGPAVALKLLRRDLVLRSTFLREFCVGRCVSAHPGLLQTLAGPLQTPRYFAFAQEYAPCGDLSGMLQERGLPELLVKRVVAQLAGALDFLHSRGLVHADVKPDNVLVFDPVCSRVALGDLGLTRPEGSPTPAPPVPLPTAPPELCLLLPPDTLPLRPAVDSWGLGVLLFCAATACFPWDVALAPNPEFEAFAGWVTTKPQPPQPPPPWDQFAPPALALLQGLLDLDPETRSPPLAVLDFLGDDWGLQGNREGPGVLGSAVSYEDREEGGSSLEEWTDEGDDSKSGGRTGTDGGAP
T21 sequence (Q9UQB9 whole entry): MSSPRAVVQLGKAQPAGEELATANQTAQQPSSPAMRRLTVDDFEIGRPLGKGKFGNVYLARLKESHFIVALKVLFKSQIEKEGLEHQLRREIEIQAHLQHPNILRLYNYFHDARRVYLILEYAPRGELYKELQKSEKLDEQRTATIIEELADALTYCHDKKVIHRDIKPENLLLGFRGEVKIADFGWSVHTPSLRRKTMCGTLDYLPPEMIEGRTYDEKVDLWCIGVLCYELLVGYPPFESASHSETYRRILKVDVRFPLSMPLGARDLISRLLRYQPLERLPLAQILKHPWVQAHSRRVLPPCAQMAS
T24 sequence (Q15569 whole entry): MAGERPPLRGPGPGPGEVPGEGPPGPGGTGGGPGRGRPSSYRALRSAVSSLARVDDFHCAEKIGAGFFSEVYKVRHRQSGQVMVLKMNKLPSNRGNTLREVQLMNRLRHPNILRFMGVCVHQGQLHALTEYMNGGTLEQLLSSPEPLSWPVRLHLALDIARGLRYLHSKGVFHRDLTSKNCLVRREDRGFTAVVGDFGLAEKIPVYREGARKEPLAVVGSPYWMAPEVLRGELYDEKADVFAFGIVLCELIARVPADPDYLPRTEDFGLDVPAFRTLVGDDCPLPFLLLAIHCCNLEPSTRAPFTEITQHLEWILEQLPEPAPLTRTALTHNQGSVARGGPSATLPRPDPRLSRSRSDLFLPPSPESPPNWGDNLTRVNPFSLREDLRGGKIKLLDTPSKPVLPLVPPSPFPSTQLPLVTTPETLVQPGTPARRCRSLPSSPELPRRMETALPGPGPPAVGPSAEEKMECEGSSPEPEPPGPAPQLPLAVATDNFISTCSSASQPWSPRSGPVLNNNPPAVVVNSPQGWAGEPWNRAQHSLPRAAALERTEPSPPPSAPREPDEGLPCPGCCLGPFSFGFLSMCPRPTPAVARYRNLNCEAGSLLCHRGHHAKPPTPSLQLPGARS
T2 sequence (O96013 whole entry): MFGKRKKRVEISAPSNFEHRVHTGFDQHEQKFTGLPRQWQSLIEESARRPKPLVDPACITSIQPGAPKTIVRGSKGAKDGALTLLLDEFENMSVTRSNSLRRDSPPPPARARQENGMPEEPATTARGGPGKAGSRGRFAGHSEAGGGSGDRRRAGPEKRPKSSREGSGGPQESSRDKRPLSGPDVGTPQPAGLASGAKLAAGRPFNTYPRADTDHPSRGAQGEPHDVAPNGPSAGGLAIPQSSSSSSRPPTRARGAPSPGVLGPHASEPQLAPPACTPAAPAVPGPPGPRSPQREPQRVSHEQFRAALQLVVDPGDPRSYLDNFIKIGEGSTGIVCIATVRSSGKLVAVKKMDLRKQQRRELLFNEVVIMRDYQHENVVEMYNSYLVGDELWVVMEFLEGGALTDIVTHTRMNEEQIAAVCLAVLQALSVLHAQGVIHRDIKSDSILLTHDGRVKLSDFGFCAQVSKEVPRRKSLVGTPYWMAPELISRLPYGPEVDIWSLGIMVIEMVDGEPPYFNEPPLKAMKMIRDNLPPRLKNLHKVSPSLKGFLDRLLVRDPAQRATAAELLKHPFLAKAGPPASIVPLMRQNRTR

Structure (SMILES): CC(C)C(=O)N1CCN(c2ccc(NC(=O)c3cc4ccccc4o3)cc2Cl)CC1 [Compound 21]
- Percent Control [1]: 92%
- Percent Control [2]: 100%
- Percent Control [3]: 72%
- Percent Control [4]: 87%
- Percent Control [5]: 99%
- Percent Control [6]: 89%
- Percent Control [7]: 100%
- Percent Control [8]: 100%
- Percent Control [9]: 100%
- Percent Control [10]: 100%
- Percent Control [11]: 99%
- Percent Control [12]: 100%
- Percent Control [13]: 83%
- Percent Control [14]: 79%
- Percent Control [15]: 74%
- Percent Control [16]: 67%
- Percent Control [17]: 98%
- Percent Control [18]: 100%
- Percent Control [19]: 40%
- Percent Control [20]: 67%
- Percent Control [21]: 87%
- Percent Control [22]: 74%
- Percent Control [23]: 85%
- Percent Control [24]: 82%
- Percent Control [25]: 100%
- Percent Control [26]: 100%

From PMC8333425, “Discovery of a dual Ras and ARF6 inhibitor from a GPCR endocytosis screen” (Nature Communications, 2021)
